Experimental data reported in EP0080283B1, “N-carboxyalkylproline-containing tripeptides” (SMITHKLINE BECKMAN CORPORATION, priority 1981, dated 1983).
Structures can show the parent of a compound that is named as a salt.

Key:
[1] = system: anesthetized dogs; assay: renal anesthetized dog screening protocol (renal vasodilator activity test, infusion); type: in vivo; parameters: renal blood flow / renal vascular resistance: dose or concentration left out as unconfirmed; conditions: for renal vasodilators: primary test period of the screening protocol
Source text: Representative specific results are included in the examples.

[2] = system: dopamine-sensitive adenylate cyclase system; assay: dopamine-sensitive adenylate cyclase system in vitro; type: biochemical
[3] = system: toad bladder; assay: toad bladder anti-ADH assay
[4] = bradycardic effect (heart rate; test not specified); conditions: in vivo
[5] = system: angiotensin coverting enzyme; assay: angiotensin converting enzyme inhibiting activity; type: in vivo; conditions: at 10 times its renally effective dose
[6] = system: spontaneously hypertensive rats (SHR); assay: spontaneously hypertensive rat test, diuretic naturetic assay; type: in vivo
Description: In this test, male, Okamato-Aoki strain, spontaneously hypertensive rats, aged 16-19 weeks, are fasted, then, the following afternoon, the first dose of test compound is adminstered, along with a 25 ml/kg p.o. load of normal saline. The animals are, then, placed in metabolism cages and urine collected for three hours for analysis. Indirect systolic blood pressure and heart rate are measured by a tail-cuff. An identical second dose of test compound is adminstered. After two hours, blood pressure and heart rate are again tested. The test compound is usually administered p.o. or i.p. in saline with 0.02% ascorbic acid.

[7] = two anesthetized dogs, 3, 30 and 300
[8] = 30 µg/kg/min, 3 anesthetized dogs
[9] = accumulative effect at 300 dose, 2 anesthetized dogs

For `O=C(O)CN1CCC[C@H]1C(=O)N[C@@H](Cc1ccccc1)C(=O)N1CCC[C@H]1C(=O)O` [Example 2 barium salt, N-carboxymethyl-L-prolyl-L-phenylalanyl-L-proline], the “activity within the parameters of anesthetized dog screening test” value ([1]; dog, in vivo) was “not active”.
With `O=C(O)CN1CCC[C@H]1C(=O)N[C@@H](Cc1ccccc1)C(=O)N1CCC[C@H]1C(=O)O` [Example 2 sulfate, N-carboxymethyl-L-prolyl-L-phenylalanyl-L-proline] the renal blood flow ([1]; 30 and 300) was “increased renal blood flow”.
With `O=C(O)CN1CCC[C@H]1C(=O)NCCC(=O)N1CCC[C@H]1C(=O)O` [Example 3, N-carboxymethyl-L-prolyi-o-alanyl-L-proline sulfate] the “stimulate or antagonize the dopamine-sensitive adenylate cyclase system” value [2] was “did not stimulate or antagonize”, the “toad bladder anti-ADH assay activity” value [3] was “nor was it active” and the bradycardic effect [4] was “weak bradycardic effect”. The “angiotensin coverting enzyme inhibiting activity” value [5] was “did not have angiotensin coverting enzyme inhibiting activity”, the Urine ([6]; 25 mg/kg i.p., n=3, control 3) was 16 ml/rat and the “K^9” value ([6]; 25 mg/kg i.p., n=3, control 85.12) was 242.53. The “Na⊕” value ([6]; 25 mg/kg i.p., n=3, control 126.76) was 676.04, the “Na^l, K° or urine excretion” value ([6]; 25 and 50 mg/kg i.p.) was “significant increase” and the ED15 ([1]; Canis lupus familiaris, iv, anesthetized renal dog protocol, read-out: RVR-ED15) was 0.012 mg/kg. The renal blood flow [1, 7] was “increased renal blood flow” and the renal vascular resistance [1, 7] was “decreased renal vascular resistance”.
In the case of `C[C@H](NC(=O)[C@@H]1CCCN1CC(=O)O)C(=O)N1CCC[C@H]1C(=O)O` [Example 1 barium salt, N-carboxymethyl-L-propyl-L-alanyl-L-proline], the “decrease in renal vascular resistance” value [1, 8] is reported as 15% and the “increase in renal blood flow” value [1, 8] is reported as 21.7%.
With `O=C(O)CN1CCCC1C(=O)NCC(=O)N1CCC[C@H]1C(=O)O` (stereo partly drawn) [N-carboxymethyl-propyl-glycyl-L-proline, reference compound] the renal vasodilators [1] was “inactive”.
With `NCCCC[C@H](NC(=O)[C@@H]1CCCN1CC(=O)O)C(=O)N1CCC[C@H]1C(=O)O` [N-carboxymethyl-L-propyl-L-lysyl-L-proline, reference compound] the renal vasodilators [1] was “inactive”.
For `C[C@H](NC(=O)[C@@H]1CCCN1CCC(=O)O)C(=O)N1CCC[C@H]1C(=O)O` [Example 4, N-(2-carboxyethyl)-L-prolyl-L-alanyl-L-proline], the “decrease in renal vascular resistance” value [1, 9] was 23% and the “increase in renal blood flow” value [1, 9] was 34%.
For `CC(C(=O)O)N1CCC[C@H]1C(=O)NCCC(=O)N1CCC[C@H]1C(=O)O` (stereo partly drawn) [N-(1-carboxyethyl)-L-propyl-β-alanyl-L-proline, reference compound], the renal vasodilators [1] was “inactive”.
